The source of these data is patent US20190224192A1, “Stable Pharmaceutical Composition of Vortioxetine Hydrobromide” (Cipla Limited, priority 2016, published 2019).

Structures can show the parent of a compound that is named as a salt.

Series [1] can be described thus: in vitro dissolution of premix compared to beta form. The format is physicochemical. Particulars: unit assumed. An excerpt: FIG. 2: FIGS. 2a and 2b show dissolution data of a Vortioxetine hydrobromide premix according to the present invention compared to the beta form of Vortioxetine hydrobromide.
In one aspect, the present invention provides a Vortioxetine hydrobromide premix having stability and dissolution properties such that it can be easily formulated into pharmaceutically useful composition.

The conditions of series [2]: cited from earlier work.
A short description of series [3]: solid state form stability (conversion of form on stability). The format is physicochemical. An excerpt: WO 2016/062860 relates to a pharmaceutical composition comprising amorphous Vortioxetine hydrobromide, a process for the preparation thereof, use thereof and a method for stabilizing Vortioxetine hydrobromide in a pharmaceutical composition.
However, this technique is not desirable in cases where the melting point of the drug to be converted is very high. For the process to work, it is required that the drug undergoes complete melting, which would lead to complete conversion. The melting point of the drug Vortioxetine is very high, in order of 227-230 degrees. The normal temperatures that are employed in the laboratory is around 180 C, maximizing to 200 C. The HME in this case was attempted with Klucel and Kollidone VA 64. […] This could be attributed to the incomplete melting of the drug and thus incomplete form conversion.

As to `Br.Cc1ccc(Sc2ccccc2N2CCNCC2)c(C)c1` [Beta Form, Vortioxetine hydrobromide], the in vitro dissolution is 14% in series [1] (Time in min 15); 20% in series [1] (Time in min 30); 29% in series [1] (Time in min 60); 37% in series [1] (Time in min 120); 49% in series [1] (Time in min 240); 61% in series [1] (Time in min 480). Further, the in vitro dissolution in series [1] (Time in min 600) and in series [1] (Time in min 720) was 63% in each case. Besides, the aqueous solubility result in series [2] is recorded as “about 1.2 mg/ml”.

For the compound `Cc1ccc(Sc2ccccc2N2CCNCC2)c(C)c1` [amorphous Vortioxetine hydrobromide, Vortioxetine hydrobromide], the “solid state form conversion on stability” value in series [3] is on record as “gets converted to a more stable crystalline form”.
